In one test the target is T1, human PARS enzyme (Homo sapiens, UniProt P09874).
T1 construct: made in house; host or cells: baculovirus expression system (Bac-To-Bac, Life Technologies)
T1 sequence (P09874 whole entry): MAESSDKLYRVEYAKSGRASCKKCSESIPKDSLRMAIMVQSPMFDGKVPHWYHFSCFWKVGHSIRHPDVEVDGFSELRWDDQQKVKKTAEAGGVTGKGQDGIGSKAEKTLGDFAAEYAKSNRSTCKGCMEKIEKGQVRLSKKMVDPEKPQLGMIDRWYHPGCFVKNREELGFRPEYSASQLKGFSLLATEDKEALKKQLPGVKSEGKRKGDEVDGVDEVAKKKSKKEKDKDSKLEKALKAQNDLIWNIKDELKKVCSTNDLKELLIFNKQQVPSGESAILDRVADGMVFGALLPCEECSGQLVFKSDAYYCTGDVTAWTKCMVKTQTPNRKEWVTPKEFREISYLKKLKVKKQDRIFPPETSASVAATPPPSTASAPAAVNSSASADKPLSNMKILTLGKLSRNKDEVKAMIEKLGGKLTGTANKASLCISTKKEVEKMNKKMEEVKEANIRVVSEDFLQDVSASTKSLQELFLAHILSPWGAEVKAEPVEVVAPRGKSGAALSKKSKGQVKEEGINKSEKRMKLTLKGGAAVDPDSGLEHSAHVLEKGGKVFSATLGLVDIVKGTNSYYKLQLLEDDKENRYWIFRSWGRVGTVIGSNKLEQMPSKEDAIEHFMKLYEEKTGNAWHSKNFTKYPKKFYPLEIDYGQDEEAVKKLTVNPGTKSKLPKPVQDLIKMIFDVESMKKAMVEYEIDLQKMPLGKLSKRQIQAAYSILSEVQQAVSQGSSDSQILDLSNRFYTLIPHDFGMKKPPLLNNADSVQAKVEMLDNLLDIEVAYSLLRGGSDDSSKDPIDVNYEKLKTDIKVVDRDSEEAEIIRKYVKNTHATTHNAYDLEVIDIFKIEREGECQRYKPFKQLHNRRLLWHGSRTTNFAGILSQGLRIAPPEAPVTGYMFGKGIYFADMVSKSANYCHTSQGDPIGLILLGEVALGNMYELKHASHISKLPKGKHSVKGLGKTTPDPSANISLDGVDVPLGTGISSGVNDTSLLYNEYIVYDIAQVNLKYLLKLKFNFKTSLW
In words: PARS inhibition test (in vitro). Conditions: recombinant human PARS, [14C]-NAD+, 10 min room temperature. The test is classed as biochemical. How it is done: The activity of substances as PARS inhibitors is tested in accordance with the method of Ushiro [Ushiro et al., J. Biol. Chem., 262, 2352-2357 (1987)]. To this end, recombinantly expressed (Bac-To-Bac, Baculo virus expression system; Instruction Manual; Life Technologies) human PARS enzyme is activated in a buffer which contains radioactively labeled [^14C]-NAD^+. The poly(ADP-ribose) units that are synthesized are precipitated using trichloroacetic acid, and the proportion of labeled protein is determined by scintillation measurements. Incubation of PARS with inhibitors leads to a decrease in the proportion of labeled protein and thus to a reduced radioactivity.
Inhibition of the PARS activity can be represented as a percentage of PARS inhibition in incubation with different substances or as the concentration at which 50% of the enzyme is inhibited, i.e. as IC50 value.
The compounds to be tested are dissolved in DMSO (dimethyl sulfoxide) at a concentration of 10 mM. The assay is carried out in deep 96-well plates. Per well, 70 μl of buffer, 10 μl of DNA, 10 μl of histones, 10 μl of NAD^+/[^14C]-NAD^+ mix and 0.5-5 μl of PARS (about 10,000 cpm/test) are combined with 1 μl of the compounds (final concentration 0.001-10 μM), to give a total volume of about 110 μl. The mixture is incubated at room temperature for 10 min, and 1 ml of ice-cold TCA solution is then added, and the precipitated labeled proteins are sucked onto a filter paper (printed filter mat A; from Wallac) using a harvester (from Scatron). The filter is dried, sealed together with a scintillation sheet (Multilex A; from Wallac) and measured in a p counter for 1 min per well.
In addition to the substances described in this application, the known PARS inhibitor 1,5-dihydroxyisoquinoline (DHCH) is tested as reference substance. The results of the test are stated as IC50 values for the inhibition of PARS.
As usually defined, the IC50 is the point on the concentration scale where inhibition reaches its midpoint. With `Oc1cccc2c(O)nccc12` [DHCH, 1,5-dihydroxyisoquinoline, reference compound], the IC50 was determined as 300 nM.

Take `O=c1[nH]c(=O)n(CCc2ccc(Br)cc2)c2c1CSCC2` [Example 1, 1-[2-(4-Bromophenyl)ethyl]-1,5,7,8-tetrahydro-2H-thiopyrano[4,3-d]pyrimidine-2,4(3H)-dione]: the half-inhibitory concentration (IC50) was determined as 60 nM.

For the compound `O=c1[nH]c(=O)n(CCc2ccc(CNCCO)cc2)c2c1CSCC2` [Example 6, 1-[2-(4-{[(2-Hydroxyethyl)amino]methyl}phenyl)ethyl]-1,5,7,8-tetrahydro-2H-thiopyrano-[4,3-d]pyrimidine-2,4(3H)-dione], the IC50 was determined as 50 nM.

For `Cc1cn(CCCn2c3c(c(=O)[nH]c2=O)CSCC3)cn1` [Example 8, 1-[3-(4-Methyl-1H-imidazol-1-yl)propyl]-1,5,7,8-tetrahydro-2H-thiopyrano[4,3-d]pyrimidine-2,4(3H)-dione], the IC50 came out at 85 nM.

As to `O=c1[nH]c(=O)n(CCc2ccc([N+](=O)[O-])cc2)c2c1CSCC2` [Example 40], the IC50 is 20 nM.

For `Cc1[nH]ncc1CCCn1c2c(c(=O)[nH]c1=O)CSCC2` [Example 53], the IC50 came to 80 nM.

For `O=c1[nH]c(=O)n(Cc2cccnc2)c2c1CSCC2` [Example 56], the IC50 was 75 nM.

In the case of `CC(C)N1CCN(C(=O)c2ccc(CCn3c4c(c(=O)[nH]c3=O)CSCC4)cc2)CC1` [Example 62], the IC50 was 800 nM.

A further test concerns MHEC5-T cells. The experiment in a line: Cell protection assay (in vitro), H2O2-induced cell death. The test is classed as cell-based. Conditions: MHEC5-T endothelial cells, 3 mM H2O2, 5 hours, Alamar blue; 10 μM DHCH defined as 100% protection; read-out: Cell protection (in vitro) EC50. On the procedure:
In accordance with a method described by Bowes [Bowes et al., Br. J. Pharmacol., 124, 1760-1766 (1998)], the ability of PARS inhibitors to protect cells against cell death induced by incubation with H2O2 is examined in a cell protection assay. Incubation of endothelial cells with H2O2 results in the generation of DNA strand breaks which in turn activate PARS, resulting in a drastic energy decrease in the cells and in cell death. Living cells are quantified by a fluorimetric redox indicator (Alamar blue), which is converted in the electron transport system of the mitochondria.
Specifically, 7500 MHEC5-T cells/well (DSM ACC 336; German collection of microorganisms and cell cultures) are sown in 4 replications on a 96-well plate. After 24 hours, the cells are incubated with 3 mM aqueous H2O2 solution and differing concentrations of the substances in the presence of 6% by volume of Alamar blue solution in the medium at 37° C. for 5 hours. The reference substance used is 10 μM 1,5-dihydroxyisoquinoline (DHCH) solution. After the incubation, the fluorescence is measured at an excitation wavelength of 530-560 nm and an emission wavelength of 590 nm. The percentage for the cell protection is calculated as the difference between the living cells treated only with H2O2 and the cells treated with H2O2 and PARS inhibitors. The internal standard used is 10 μM DHCH, which is defined as 100% protection. The results obtained for the other substances are compared to this value.
The EC50 values indicate the concentration at which 50% of maximum cell protection is reached, maximum protection by 10 μM DHCH being defined as 100%. DHCH has an EC50 value of 2 μM.
(Alamar Blue is a resazurin reagent that responds to reducing activity.)
In general, EC50 refers to the concentration that produces a half-maximal response. For `O=Cc1ccc(CCn2c3c(c(=O)[nH]c2=O)CSCC3)cc1` [Example 5], the EC50 came to 150 nM.

For `O=c1[nH]c(=O)n(CCc2ccc(CN3CCCCC3)cc2)c2c1CSCC2` [Example 61], the EC50 amounted to 100 nM.

As for `O=c1[nH]c(=O)n(CCCn2cnc([N+](=O)[O-])c2)c2c1CSCC2` [Example 65], the half-maximal effective concentration (EC50) amounted to 90 nM.

For `O=c1[nH]c(=O)n(CCc2cccnc2)c2c1CSCC2` [Example 66], the EC50 amounted to 650 nM.

Consider `O=c1[nH]c(=O)n(CCCn2ccnc2)c2c1CSCC2` [Example 76], for which the EC50 is 500 nM.

Still in this test, the particulars now being: MHEC5-T endothelial cells, 3 mM H2O2; maximum protection by 10 μM DHCH defined as 100%; read-out: EC50 value cell protection.
`Oc1cccc2c(O)nccc12` [DHCH, 1,5-dihydroxyisoquinoline, reference compound]: the 50% effective concentration (EC50) came out at 2000 nM.

(Values after patent publication US20050159431A1, “Substituted alkyl uracils and thereof” (Bayer Healthcare AG, priority 2002, published 2005).)
